Assays:
ATR = biological target: T1, ATR (Homo sapiens, UniProt Q13535); assay: ATR kinase inhibition, Mobility Shift Assay; format: biochemical; conditions: n = 3, mean ± SD
T1 construct: purchased Eurofins 14-953
Method: The in vitro ATR kinase inhibitory activities were determined by ChemPartner Co., Ltd. (Shanghai, China) using the Mobility Shift Assay. The tested compound was dissolved with DMSO and diluted to 1000/3 × of the final desired highest inhibitor concentration in the reaction. […] The assay wells were incubated at 28 °C for 4 h.

MDA‐MB‐468 cells [1] = assay: Immunofluorescence of γH2AX foci; format: cell-based; conditions: 48 h, vs Olaparib, AZD6738, and their combination
Method: (§1) Cells were fixed for 30 min in 4% paraformaldehyde and permeabilized for 30 min in 1% Triton X‐100 at 4 °C. After three rinses with PBS, cells were blocked for 30 min with 5% BSA and incubated with γH2AX antibody (1/1000 dilution, CST#9718) in 5% BSA overnight at 4 °C, after which they were rinsed three times with PBS and incubated with the secondary antibodies at room temperature for 1 h. Then, cells were washed with PBS three times, and the nucleus was stained with DAPI and fixed. Finally, images were visualized with the microscope and analyzed.

MDA‐MB‐231 cells = assay: Immunofluorescence of γH2AX foci; format: cell-based; conditions: 48 h, vs Olaparib, AZD6738, and their combination
Method: as §1

MDA‐MB‐468 cells [2] = assay: Western blotting analysis; format: cell-based; conditions: 48 h
Method: Cells were washed with cold PBS and lysed in RIPA buffer containing protease inhibitors (MCE, HY‐K0010). The lysate was centrifuged (13 000 rpm, 4 °C, 15 min); the protein concentrations were determined by the BCA Assay Kit (Beyotime, p0012s). Proteins were loaded onto 10% SDS‐PAGE gel and then transferred onto polyvinylidene fluoride (Millipore) membranes. The membranes were blocked for 1 h, incubated with primary antibodies overnight at 4 °C, and then washed three times with Tris‐buffered saline with Tween 20 (TBST) for 10 min. After incubating with the secondary HRP antibody for 1 h at room temperature, the membranes were washed three times with TBST for 10 min and then exposed on autoradiograph films using enhanced chemiluminescence. The primary antibodies used were ATR (1/1000 dilution, CST#13 934), PARP1 (1/1000 dilution, CST#9532), BCL‐2 (1/1000 dilution, CST#4223), Bax (1/1000 dilution, CST#5023), Caspase 3 (1/1000 dilution, CT#9662), Cleaved caspase 3 (1/1000 dilution, CST#9661), E‐cadherin (1/1000 dilution, CST#3195), Vimetin (1/1000 dilution, CST#5741), p‐CHK1 (1/1000 dilution, CST#2348), CHK1 (1/1000 dilution, CST#2360), CDK1 (Proteintech#19532‐1‐AP), p‐CDK1 (CST#9114), γH2AX (1/1000 dilution, CST#9718), and β‐Actin (1/1000 dilution, Proteintech# 66009‐1‐Ig).

PARP5A = PARP5A (Homo sapiens, UniProt O95271); assay: PARP family selectivity; format: biochemical
Method: (§2) The PARP activity assay was performed by ChemPartner (Shanghai, China). Each well was precoated with histone (final conc.: 100 ng mL^−1) diluted in PBS buffer (contains 10 mmol L^−1 NaH2PO4 and 150 mmol L^−1 NaCl, pH 7.4) by incubation at 4 °C overnight. […] The reaction was initiated by the addition of 10 µL of PARP (final conc.: 0.007 nM/well) at room temperature for 60 min. Add 20 µL of anti‐Poly/Mono‐ADP Ribose Rabbit mAb. Incubate for 1.5 h at room temperature and wash the plate three times using PBST buffer. Add 20 µL of diluted (1:2000) anti‐rabbit IgG, HRP‐linked Antibody. Incubate for 1 h at room temperature and wash the plate three times using PBST buffer. Add 25 µL Femto‐ECL Substrate A and Femto‐ECL Substrate B (1:1) mix. Immediately read chemiluminescence on Envision (Revvity, USA).

PARP5B = PARP5B (Homo sapiens, UniProt Q9H2K2); assay: PARP family selectivity; format: biochemical
Method: as §2

PARP2 = PARP2 (Homo sapiens, UniProt Q9UGN5); assay: PARP family selectivity; format: biochemical
Method: as §2, with “Add 20 µL of diluted (1:2000) anti‐rabbit IgG, HRP‐linked Antibody.” left out

PARP7 = PARP7 (Homo sapiens, UniProt Q7Z3E1); assay: PARP family selectivity; format: biochemical
Method: as §2, with “Add 20 µL of diluted (1:2000) anti‐rabbit IgG, HRP‐linked Antibody.” left out

PI3Kα = PI3Kα (Homo sapiens, UniProt P42336); assay: PIKK family kinase selectivity; format: biochemical
MDA‐MB‐231 = assay: Cell growth inhibition, CellTiter‐Glo (CTG); format: cell-based
Method: (§3) All cells were grown in a humidified incubator at 37 °C and 5% CO2.
(§4) […] […] Relative viability was calculated by normalizing the raw luminescence counts of the treated groups to those of the DMSO control groups. IC₅₀ values were calculated using sigmoidal dose‐response curve fitting with GraphPad Prism 9.0 software.

MDA‐MB‐468 = assay: Cell growth inhibition, CellTiter‐Glo (CTG); format: cell-based
Method: as §3, §4

[3] = compared to the combination group
[4] = 24, 48, 72 h treatment, Figure S2

Sequence of PARP2 (Q9UGN5 whole entry, species assumed): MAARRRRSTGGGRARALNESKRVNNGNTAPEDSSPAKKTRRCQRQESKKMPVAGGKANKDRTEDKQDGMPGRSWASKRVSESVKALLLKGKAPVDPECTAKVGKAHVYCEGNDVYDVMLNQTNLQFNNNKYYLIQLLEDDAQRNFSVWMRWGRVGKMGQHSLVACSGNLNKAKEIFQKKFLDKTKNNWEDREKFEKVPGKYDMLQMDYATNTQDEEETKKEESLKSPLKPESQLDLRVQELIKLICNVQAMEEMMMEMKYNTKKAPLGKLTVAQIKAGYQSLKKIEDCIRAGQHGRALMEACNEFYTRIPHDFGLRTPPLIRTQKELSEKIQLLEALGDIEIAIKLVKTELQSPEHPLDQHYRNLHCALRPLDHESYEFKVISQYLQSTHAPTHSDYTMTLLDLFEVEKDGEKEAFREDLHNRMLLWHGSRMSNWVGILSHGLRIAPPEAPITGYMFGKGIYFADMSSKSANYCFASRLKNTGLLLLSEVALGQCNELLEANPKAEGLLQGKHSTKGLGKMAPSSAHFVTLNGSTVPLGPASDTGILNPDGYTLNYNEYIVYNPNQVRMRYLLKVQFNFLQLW
Sequence of PARP7 (Q7Z3E1 whole entry, species assumed): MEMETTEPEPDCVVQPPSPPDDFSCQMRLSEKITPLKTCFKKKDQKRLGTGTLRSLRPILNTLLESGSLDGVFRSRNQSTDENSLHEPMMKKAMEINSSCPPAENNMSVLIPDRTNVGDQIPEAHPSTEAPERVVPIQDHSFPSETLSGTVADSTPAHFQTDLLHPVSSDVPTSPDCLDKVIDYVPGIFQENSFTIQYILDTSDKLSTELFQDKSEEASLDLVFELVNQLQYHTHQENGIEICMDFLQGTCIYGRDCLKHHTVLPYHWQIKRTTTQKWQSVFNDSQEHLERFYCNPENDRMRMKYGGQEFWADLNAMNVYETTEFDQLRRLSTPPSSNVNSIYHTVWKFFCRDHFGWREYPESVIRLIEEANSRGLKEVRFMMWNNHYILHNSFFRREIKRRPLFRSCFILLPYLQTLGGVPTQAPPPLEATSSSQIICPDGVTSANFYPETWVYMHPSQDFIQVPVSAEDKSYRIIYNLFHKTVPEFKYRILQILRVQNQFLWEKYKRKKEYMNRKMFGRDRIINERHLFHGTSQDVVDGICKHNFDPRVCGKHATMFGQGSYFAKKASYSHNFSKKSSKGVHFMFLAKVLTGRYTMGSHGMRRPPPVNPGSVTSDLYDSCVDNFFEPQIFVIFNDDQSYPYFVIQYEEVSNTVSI
Sequence of PARP5B (Q9H2K2 whole entry, species assumed): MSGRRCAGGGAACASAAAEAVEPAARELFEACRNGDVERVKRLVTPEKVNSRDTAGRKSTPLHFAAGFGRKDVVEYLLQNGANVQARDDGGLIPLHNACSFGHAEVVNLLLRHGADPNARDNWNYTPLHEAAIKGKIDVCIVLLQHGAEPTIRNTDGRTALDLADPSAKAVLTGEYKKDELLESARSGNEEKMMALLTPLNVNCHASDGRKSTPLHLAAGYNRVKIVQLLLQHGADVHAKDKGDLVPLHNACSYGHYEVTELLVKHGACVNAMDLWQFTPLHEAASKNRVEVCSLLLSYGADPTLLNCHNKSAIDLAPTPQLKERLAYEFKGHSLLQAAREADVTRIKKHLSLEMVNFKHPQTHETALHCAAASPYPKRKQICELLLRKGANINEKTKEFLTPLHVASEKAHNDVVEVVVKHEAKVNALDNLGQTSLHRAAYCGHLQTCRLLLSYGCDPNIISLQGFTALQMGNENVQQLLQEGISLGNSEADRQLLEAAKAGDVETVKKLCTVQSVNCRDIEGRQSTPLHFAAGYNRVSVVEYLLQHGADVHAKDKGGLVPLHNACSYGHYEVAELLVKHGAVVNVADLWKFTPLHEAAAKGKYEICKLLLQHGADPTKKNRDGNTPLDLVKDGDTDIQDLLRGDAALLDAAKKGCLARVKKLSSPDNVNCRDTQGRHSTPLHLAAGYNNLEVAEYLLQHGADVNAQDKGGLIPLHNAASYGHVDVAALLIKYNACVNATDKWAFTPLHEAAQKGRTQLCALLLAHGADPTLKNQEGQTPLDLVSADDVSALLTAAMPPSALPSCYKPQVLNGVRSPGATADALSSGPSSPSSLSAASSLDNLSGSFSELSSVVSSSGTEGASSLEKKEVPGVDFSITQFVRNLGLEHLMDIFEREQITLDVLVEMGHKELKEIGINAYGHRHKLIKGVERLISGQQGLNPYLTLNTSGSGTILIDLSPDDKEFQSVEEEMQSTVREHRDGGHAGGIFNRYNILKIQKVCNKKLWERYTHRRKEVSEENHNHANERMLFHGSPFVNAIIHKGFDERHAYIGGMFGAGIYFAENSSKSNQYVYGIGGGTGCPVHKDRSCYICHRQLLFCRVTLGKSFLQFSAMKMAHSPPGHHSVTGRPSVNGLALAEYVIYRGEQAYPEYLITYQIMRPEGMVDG
Sequence of PARP5A (O95271 whole entry, species assumed): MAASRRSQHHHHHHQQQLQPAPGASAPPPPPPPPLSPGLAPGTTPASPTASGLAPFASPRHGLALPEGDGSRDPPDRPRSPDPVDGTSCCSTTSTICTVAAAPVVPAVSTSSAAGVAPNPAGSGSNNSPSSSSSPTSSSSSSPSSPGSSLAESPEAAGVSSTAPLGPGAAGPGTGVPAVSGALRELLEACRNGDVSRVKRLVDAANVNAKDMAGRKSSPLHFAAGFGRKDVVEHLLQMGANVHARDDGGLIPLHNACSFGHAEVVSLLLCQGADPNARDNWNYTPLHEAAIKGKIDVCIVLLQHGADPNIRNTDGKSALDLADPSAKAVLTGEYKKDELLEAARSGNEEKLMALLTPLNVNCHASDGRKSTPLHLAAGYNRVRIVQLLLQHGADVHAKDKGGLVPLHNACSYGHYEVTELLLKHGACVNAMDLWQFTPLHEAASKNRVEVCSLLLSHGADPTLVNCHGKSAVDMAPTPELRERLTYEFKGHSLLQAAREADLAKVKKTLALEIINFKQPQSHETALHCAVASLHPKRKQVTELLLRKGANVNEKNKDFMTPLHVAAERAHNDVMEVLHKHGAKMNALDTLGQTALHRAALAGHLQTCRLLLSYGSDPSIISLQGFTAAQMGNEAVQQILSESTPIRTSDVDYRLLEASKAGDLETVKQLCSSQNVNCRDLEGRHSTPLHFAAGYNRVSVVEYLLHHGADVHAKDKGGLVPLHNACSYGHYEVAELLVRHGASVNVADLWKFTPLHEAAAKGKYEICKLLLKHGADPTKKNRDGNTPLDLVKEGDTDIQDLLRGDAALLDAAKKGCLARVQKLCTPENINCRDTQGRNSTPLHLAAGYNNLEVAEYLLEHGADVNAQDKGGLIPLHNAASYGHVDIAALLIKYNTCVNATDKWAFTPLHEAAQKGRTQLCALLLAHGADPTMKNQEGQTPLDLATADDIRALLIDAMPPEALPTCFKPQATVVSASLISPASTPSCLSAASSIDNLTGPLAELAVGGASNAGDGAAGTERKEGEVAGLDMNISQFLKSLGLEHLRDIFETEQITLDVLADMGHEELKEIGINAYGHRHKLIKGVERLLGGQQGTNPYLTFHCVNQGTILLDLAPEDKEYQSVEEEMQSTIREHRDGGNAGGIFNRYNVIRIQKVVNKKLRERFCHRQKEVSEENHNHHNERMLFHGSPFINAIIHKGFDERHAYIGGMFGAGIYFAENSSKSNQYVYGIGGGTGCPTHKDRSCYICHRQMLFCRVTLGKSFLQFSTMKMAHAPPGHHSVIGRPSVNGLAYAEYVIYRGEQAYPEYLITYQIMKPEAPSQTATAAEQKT

## C[C@@H]1COCCN1c1cc(CNC(=O)c2ccc(C(=O)N3CCN(C(=O)c4cc(Cc5n[nH]c(=O)c6ccccc56)ccc4F)CC3)cc2)nc(-c2ccnc3[nH]ccc23)n1 [Compound B8, (R)‐4‐(4‐(2‐fluoro‐5‐((4‐oxo‐3,4‐dihydrophthalazin‐1‐yl)methyl)benzoyl)piperazine‐1‐carbonyl)‐N‐((6‐(3‐methylmorpholino)‐2‐(1H‐pyrrolo[2,3‐b]pyridin‐4‐yl)pyrimidin‐4‐yl)methyl) benzamide]
ATR
  IC50: 17.3 ± 2.5 nM
MDA‐MB‐468 cells [1]
  γH2AX foci formation: significantly increased the formation of γH2AX foci
MDA‐MB‐231 cells
  γH2AX foci formation: significantly increased the formation of γH2AX foci
MDA‐MB‐468 cells [2]
  BCL‐2 protein expression (Western blot): significantly decreased the protein expression of BCL‐2
  CDK1 Tyr15 phosphorylation (Western blot): enhanced CDK1 Tyr15 phosphorylation
  CHK1 Ser345 phosphorylation (Western blot): significantly decreased CHK1 Ser345 phosphorylation
MDA‐MB‐468 cells [2]; [3]
  E‐cadherin expression (Western blot): significant increase in the expression of the epithelial cell marker E‐cadherin
  Vimentin expression (Western blot): decrease in the expression of the mesenchymal cell marker Vimentin
MDA‐MB‐468 cells [2]; compared to the combination of AZD6738 and Olaparib
  BAX and cleaved‐caspase‐3 protein expression (Western blot): induced more BAX and cleaved‐caspase‐3 protein expression
MDA‐MB‐468 cells [2]; B8 1.0 and 2.0 µM
  DSB marker γH2AX (Western blot): significantly increased than under the combination treatment
MDA‐MB‐468 cells [2]; B8 1.0 and 2.0 µM, vs Olaparib or AZD6738 alone or in combination
  protein levels of ATR and PARP1 (Western blot): reduction in the protein levels of both ATR and PARP1
PARP5A
  IC50: 116 nM
PARP5A; fold of PARP1 selectivity over PARP5A
  PARP5A (selectivity over PARP1, fold): 305 fold
PARP5B
  IC50: 240 nM
PARP5B; fold of PARP1 selectivity over PARP5B
  PARP5B (selectivity over PARP1, fold): 631.6 fold
PARP2
  IC50: 5.1 nM
PARP2; fold of PARP1 selectivity over PARP2
  PARP2 (selectivity over PARP1, fold): 13.4 fold
PARP7
  IC50: 28.5 ± 1.3 nM
PARP7; fold of PARP1 selectivity over PARP7
  PARP7 (selectivity over PARP1, fold): 75 fold
PI3Kα
  IC50: > 2500 nM
MDA‐MB‐231; [4]
  anti‐proliferation effect at different time points: exerted anti‐proliferation activity
MDA‐MB‐231; Homo sapiens, MDA-MB-231, 120 h, read-out: IC50 MDA‐MB‐231, CTG, 5 days, n = 3
  IC50: 1890 ± 130 nM
MDA‐MB‐468; [4]
  anti‐proliferation effect at different time points: exerted anti‐proliferation activity
MDA‐MB‐468; Homo sapiens, MDA-MB-468, 120 h, CTG, 5 days, n = 3
  IC50: 320 ± 10 nM

Source: article PMC12362783 (Advanced Science, 2025)
